Several values for one entry are separate records, joined by “and”; a condition that tells them apart may be missing. Identical values can stand only once.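 Interpolation was linear, between the two tested concentrations surrounding the appropriate level; five concentrations were tested over 48 hours in 96-well plates. GI50: concentration for 50% inhibition of growth. Definition used: TGI = concentration required for complete inhibition of growth.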

The subject of this test is MDA-MB-468 breast. The test is described as follows: NCI-60 cell line screen, 48 h.
As to `CCc1ccc2cc3c(ccc4ccccc43)c3c2c1CC3`, the GI50 is 481 nM and the TGI was over 100000 nM.
Take `NC1=Nc2cc(OCCCCN3Cc4ccccc4C3)c(OCC3CC3)cc2C12CCCC2`: the GI50 was 1250 nM and the TGI amounted to 2750 nM.
Consider `O=c1[nH]c2c(ccc3cnccc32)c2c1CCC2`, for which the GI50 was 206 nM and the TGI stood at 549 nM.
As to `CCn1nc(C#Cc2c(C)ccc3c(Nc4ccc(Cl)cc4)nccc23)c2c(N)ncnc21`, the GI50 was 2250 nM and the TGI was 10500 nM.
On to `CC[C@@]12CC(C(=O)OC)=C3Nc4ccccc4[C@@]34CCN(C[C@H]3O[C@H]31)[C@@H]24`, for which the GI50 is 21500 nM and the TGI is 98700 nM.
Taken in the same sequence, the figures for `C=C1C(=O)O[C@H]2[C@H]1CC/C(COC(=O)NCc1ccc(Cn3c(=O)sn(CCCI)c3=O)cc1)=C\CC[C@@]1(C)O[C@@H]21` were 1540 nM and 3480 nM.
For `CC/C(=C\c1ccc(N(C)C)cc1)c1ccncc1`, the GI50 was 2270 nM and the TGI came to 7320 nM.
For `N#CSc1c[nH]c2cccc(/C=C/C(=O)/C=C(O)/C=C/c3cccc4[nH]cc(SC#N)c34)c12`, the GI50 is 496 nM and the TGI was 1220 nM.
On to `N=C(N)c1ccc(-c2ccc(-c3cccs3)s2)cc1F`, for which the GI50 was 46.4 nM and the TGI was 256 nM.
For `COc1cccc(-c2cc(-c3ccc(Nc4nc(Nc5ccc(Cl)cc5)nc(Nc5ccc(Cl)cc5)n4)cc3)nc(N)c2C#N)c1`, the GI50 is 2180 nM and the TGI is 4790 nM.
Taken in the same sequence, the figures for `CC(C)OC(=O)OCOP(=O)(OCOC(=O)OC(C)C)C1CCCN(O)C1=O` (stereo not given) were 1610 nM and over 100000 nM.
Regarding `CC1(C)N=C(N)N=C(N)N1c1cccc(CC(=O)Nc2ccccc2)c1`, the GI50 is 22100 nM and the TGI was over 100000 nM.
As to `Cc1ccccc1C1N=C2Oc3ccccc3C=C2C(=O)N1` (stereo not given), the GI50 is 524 nM and the TGI is over 100000 nM.
Taken in the same sequence, the figures for `Nc1ncnc2c1ncn2C1SC(CO)C(O)C1O` (stereo not given) were 19400 nM and 58000 nM.
Taken in the same sequence, the figures for `Cc1ccc(CNc2ccc(Cl)cc2NCc2ccc(C)c(O)c2)cc1O` were 8050 nM and 16800 nM.
Turning to `Fc1cnccc1-c1nc2ccc3[nH]ncc3c2c2c1CCCC2`, the GI50 is 1050 nM and the TGI was determined as 7860 nM.
For `CCCN1CCCC(c2ccc(Nc3nc(Nc4cc(F)ccc4C(N)=O)c4cc[nH]c4n3)c(OC)c2)C1` (stereo not given), the GI50 is 3250 nM and the TGI was 6730 nM.
On to `COc1cc(-c2nn(-c3cccc(NC(=O)NCCNC(=O)c4ccccc4)c3)cc2-c2ccncc2)ccc1Cl`, for which the GI50 is 3140 nM and the TGI was over 100000 nM.
Regarding `C=C(C)[C@@H]1CC[C@]2(C(=O)OC)CC[C@]3(C)[C@H](CC[C@@H]4[C@@]5(C)CC/C(=N\OCCC(=NCCC#N)NOCCC#N)C(C)(C)[C@@H]5CC[C@]43C)[C@@H]12`, the GI50 is 2020 nM and the TGI was over 50000 nM.
Take `CC(=O)Nc1ccc(S(=O)(=O)N2C(=O)CCC2C(=O)Nc2ccccc2)cc1` (stereo not given): the GI50 is 1760 nM and the TGI came out at 19200 nM.
Taken in the same sequence, the figures for `CN(C)CCCn1c2c(c3ccc(N4CCNCC4)cc3c1=O)C(=O)c1ccccc1-2` were 949 nM and 2410 nM.
In the case of `CN1CCN(c2ccc(Nc3nc(NCCCNS(=O)(=O)c4cccc(F)c4)c4sccc4n3)cc2)CC1`, the GI50 was 2590 nM and the TGI was determined as 10900 nM.
For the compound `CC(C)c1c(C(=O)Nc2ccccc2)c(-c2ccccc2)c(-c2ccc(F)cc2)n1CC[C@@H](O)C[C@@H](O)CC(=O)O`, the GI50 is 9320 nM and the TGI came to 68900 nM.
Taken in the same sequence, the figures for `O=c1c2cc(F)ccc2sc2c(NCCCNCCO)nc3ccc(F)cc3c12` were 1780 nM and 3470 nM.
Taken in the same sequence, the figures for `CCN(CC)c1ccc(C=C2C(=O)NC(=S)NC2=O)cc1` were 2370 nM and 5560 nM.
With `CCOc1ccc(-c2nc3ccc(-c4nc5ccc(N6CCN(C)CC6)cc5[nH]4)cc3[nH]2)cc1OCC`, the GI50 is 1580 nM and the TGI worked out at 4600 nM.
Taken in the same sequence, the figures for `CC1(C)CCC(c2ccc(Cl)cc2)=C(CN2CCN(c3ccc(C(=O)NS(=O)(=O)c4ccc(N[C@H](CCN5CCOCC5)CSc5ccccc5)c(S(=O)(=O)C(F)(F)F)c4)cc3)CC2)C1` were 770 nM and 2640 nM.
On to `N#Cc1cccc(/C(N)=N/C(N)=N/c2nc3ccccc3s2)c1`, for which the GI50 is 415 nM.
Turning to `OC1(c2ccccc2)c2ccccc2N(c2ccccc2)c2ccc(Cl)cc21` (stereo not given), the GI50 is 86.4 nM and the TGI was found to be 317 nM.
Taken in the same sequence, the figures for `COc1cc(C(=O)N[C@@H]2CCCN(C)C2)ccc1Nc1ncc2c(n1)N(C1CCCC1)CC(C)(C)C(=O)N2C` were 17.7 nM and 3390 nM.
Taken in the same sequence, the figures for `N/C(=N\O)c1cn(C2OC(CO)C(O)C2O)c2ncnc(N)c12` (stereo not given) were 126 nM and 453 nM.
Taken in the same sequence, the figures for `COC(=O)[C@@H](C)C[C@H](Cc1ccccc1)NC(=O)c1nc([C@@H](C[C@H](C(C)C)N(C)C(=O)[C@@H](NC(=O)[C@H]2CC(=O)CCN2C)C(C)C)OC(C)=O)sc1C(C)C` were 25.8 nM and 129 nM.
As to `COc1cc2nc(NC3CCC3)nc(NC3CCN(C(C)C)CC3)c2cc1OC`, the GI50 is 1370 nM and the TGI was 2850 nM.
As to `COc1ccc(-c2cc(-c3ccc(Cl)cc3)c(C#N)c(=O)n2CCCCCC(=O)Nc2ccccc2N)cc1`, the GI50 was 3240 nM and the TGI came out at 31500 nM.
`Nc1nc(N)c2nc(CNc3ccc(C(=O)NC(CCC(=O)O)C(=O)O)cc3)cnc2n1` (stereo not given): the GI50 is 35.7 nM and < 10 nM; the TGI is over 100000 nM.
As for `O=C1Nc2ccc(I)cc2/C1=C/c1cc(Br)c(O)c(Br)c1`, the GI50 was > 18900 nM and 15900 nM; the TGI is > 25000 nM and 57500 nM.
As for `CN1CC[C@H](N(C)C(=O)N2CC(c3cc(F)ccc3F)=C[C@@]2(CO)c2ccccc2)[C@H](F)C1`, the GI50 was 5.14 nM.
`COc1ncc(-c2ccc3nc(N)n(-c4ccccc4C(F)(F)F)c(=O)c3c2)cc1S(=O)(=O)Nc1ccc(F)cc1F`: the GI50 was 853 nM and the TGI is 2920 nM.
Consider `C=CN(C(=O)N1CCN(c2cc3c(cc2F)c(=O)c(C(=O)O)cn3C2CC2)CC1)c1nc(-c2ccc(C)cc2)cs1`, for which the GI50 is 2860 nM and the TGI was determined as 9140 nM.
Consider `CNC(=S)N/N=C/CSC/C=N/NC(=S)NC`, for which the GI50 was over 100000 nM and the TGI is over 100000 nM.
Regarding `CCCCCCCCCCCCNC(=O)N[C@H](C(=O)N[C@H]1/C=C/OCCNC(=O)/C=C/[C@H](C(C)C)NC1=O)C(C)C`, the GI50 is 898 nM and the TGI came out at 6740 nM.
Turning to `COc1cnc2c(c1)C(=O)c1c-2n(CCCN2CCNCC2)c(=O)c2cc(F)ccc12`, the GI50 is 205 nM and the TGI is 784 nM.
In the case of `O=c1[nH]c(-c2ccncc2)nc2sc3c(c12)CCCCCC3`, the GI50 was over 100000 nM and the TGI was over 100000 nM.
Consider `Cc1cc(C)c(CNC(=O)c2cc(Cl)c3c(c2C)O[C@@](C)(C2CCC(N(C)C)CC2)O3)c(=O)[nH]1` (stereo not given in full), for which the GI50 was 24100 nM and the TGI is over 100000 nM.
With `Cc1n[nH]c(C)c1-c1c(C)n[nH]c1C`, the GI50 was 1960 nM and the TGI worked out at 4750 nM.
For the compound `COc1cc(F)c(F)c(F)c1C(=O)c1cnc(NC2CCN(S(C)(=O)=O)CC2)nc1N`, the GI50 was 2300 nM and the TGI came to 7270 nM.
For the compound `Nc1nc(-c2ccccn2)c(-c2ccc3ncccc3n2)s1`, the GI50 is over 25000 nM and the TGI was over 25000 nM.
In the case of `Nc1c2ccccc2nc2ccccc12`, the GI50 is 1060 nM and 1150 nM; the TGI is 2850 nM and 2880 nM.
Regarding `CC1(C)CC[C@]2(C(=O)O)CC[C@]3(C)C(=CC[C@@H]4[C@@]5(C)C/C(=C/c6cccnc6)[C@H](O)C(C)(C)[C@@H]5CC[C@]43C)[C@@H]2C1`, the GI50 is 17100 nM and the TGI was 88300 nM.
Taken in the same sequence, the figures for `CN(C)c1ccc(-c2cc(-c3cccc(NS(C)(=O)=O)c3)nc(N)c2C#N)cc1` were 268 nM and 1170 nM.
For `FC(F)(F)c1ccc(-c2cnc(-c3nn[nH]n3)nc2NC2CCCCCC2)cc1`, the GI50 was over 10000 nM and the TGI was over 10000 nM.

The values are drawn from PubChem BioAssay (NCI).
